In patent US20170000889A1, “STABLE BROMFENAC OPHTHALMIC SOLUTION” (SENTISS PHARMA PRIVATE LIMITED, priority 2013, published 2017):

Assay: Haziness of citrate-buffered bromfenac formulation on addition of BKC, effect of surfactants
Format: physicochemical
Details: for Degradation of the bromfenac solution with the surfactant: compared among different surfactants; for Haziness after addition of BKC to the citrate formulation: surfactant added to citrate-buffered bromfenac solution with benzalkonium chloride
Procedure: In yet other embodiment of the present invention, citrate buffer is used instead of borate buffer but when benzalkonium chloride (BKC) was added in the citrate formulation it causes haziness of the formulation.
The inventors of the present invention extensively studied how to overcome the haziness occurred during the addition of BKC.

Row | Degradation of the bromfenac solution with the surfactant | Haziness after addition of BKC to the citrate formulation | Substance
1 | least amount of degradation | remove the haziness | polyoxyl-15-hydroxystearate
2 | least amount of degradation | remove the haziness | polysorbate 80
